Laboratory results published in patent publication EP1363899B1, “QUINAZOLONE DERIVATIVES AS ALPHA 1A/B ADRENERGIC RECEPTOR ANTAGONISTS” (F.HOFFMANN-LA ROCHE AG, priority 2001, dated 2002).

Columns and labels:
[1] = test system: hypogastric nerve stimulation-induced increases in intraurethral pressure and phenylephrine-induced increases in diastolic blood pressure; assay: Dog in vivo blood and intraurethral pressure assay; details: anesthetized mongrel dogs, i.v. bolus, increasing doses
Protocol: The following describes an in vivo assay for measuring the relative effect of test compounds on hypogastric nerve stimulation-induced increases in intraurethral pressure and phenylephrine-induced increases in diastolic blood pressure in anesthetized dog.
Mongrel dogs (10 to 20 kg) were fasted for 12 to 18 hours and anesthetized with […] (35 mg/kg, i.v.). An endotracheal tube was inserted and thereafter the lungs were mechanically ventilated with room air. The right femoral vein was isolated and cannulated with two polyethylene cannulae, one for the administration of a continuous infusion of phenobarbital sodium (5 to 10 mg/kg/hr) and the other for bolus administration of test substances. The right femoral artery was isolated and cannulated to the abdominal aorta with a fluid filled polyethylene cannula connected to an external pressure transducer for monitoring diastolic aortic pressure (DAP). The bladder was exposed via a ventral midline abdominal incision and emptied of urine through a 22 gauge needle. The bladder was cannulated through a stab incision with a water filled balloon catheter connected to an external pressure transducer for monitoring prostatic intraurethral pressure (IUP). The right hypogastric nerve (HGN) was carefully isolated and attached to a Dastre's electrode for nerve stimulation. […]

alpha-1D adrenoceptor = target: T1, alpha-1D adrenoceptor (Homo sapiens, UniProt P25100); assay: [3H]prazosin binding (alpha1-adrenoceptor) assay, alpha-1D; details: membranes of transfected CHO-KI cells, read-out: affinity towards the alpha-1D adrenoceptor (pKi) (converted)
T1 construct: expressed in transfected cells; host or cells: CHO-K1
T1 sequence (P25100 1-572): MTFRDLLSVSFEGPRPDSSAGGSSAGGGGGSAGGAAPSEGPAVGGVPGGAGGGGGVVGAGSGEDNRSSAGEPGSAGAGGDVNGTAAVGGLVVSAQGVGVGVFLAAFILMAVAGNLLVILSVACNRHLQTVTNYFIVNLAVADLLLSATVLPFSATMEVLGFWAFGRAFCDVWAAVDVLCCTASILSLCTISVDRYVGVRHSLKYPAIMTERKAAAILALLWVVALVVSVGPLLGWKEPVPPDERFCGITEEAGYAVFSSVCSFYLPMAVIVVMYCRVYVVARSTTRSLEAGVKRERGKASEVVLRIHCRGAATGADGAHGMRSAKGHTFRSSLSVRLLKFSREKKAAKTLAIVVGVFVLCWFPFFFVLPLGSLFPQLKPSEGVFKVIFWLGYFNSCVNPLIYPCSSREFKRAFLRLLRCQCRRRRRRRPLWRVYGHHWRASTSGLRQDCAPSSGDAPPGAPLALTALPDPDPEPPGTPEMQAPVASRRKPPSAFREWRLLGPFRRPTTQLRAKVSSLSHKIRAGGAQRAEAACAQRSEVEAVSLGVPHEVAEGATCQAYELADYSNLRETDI
Protocol: (§1) Alpha1A, alpha1B, and alpha1D adrenoceptor transfected CHO-KI cells, prepared using the methods described by Chang et al., FEBS Lett. 1998, 422:279-283, were grown to confluence in T-162 tissue culture flasks in Ham's F-12 culture medium supplemented with 10% fetal bovine serum, geneticin (150 µg/mL) and streptomycin/penicillin (30 µg/mL/30 µg/mL) at 37 °C in 7% CO2. Cells were harvested by incubating with phosphate-buffered saline (PBS) containing 30 µM EDTA for 5-10 min at 37 °C. Cells were pelleted by centrifuging at 500 x g for 5 min, and the pelleted cells were homogenized (Polytron homogenizer) in 10 vols (w/v) of 50 mM Tris, 1 mM EDTA, (homogenisation buffer, pH 7.4 at 4 °C). The homogenate was centrifuged at 45,000 x g for 20 min. The pellet was resuspended in the homogenizing buffer and rehomogenized. The resulting homogenate was centrifuged at 45,000 x g for 20 min. The pellet was resuspended in 50 mM Tris buffer (pH 7.4 at 4 °C), aliquoted, frozen, and stored at -80 °C for further use.
(§2) The membranes were thawed at room temperature and diluted in assay buffer (50 mM Tris buffer at […]) at 37 °C and homogenized using the Polytron tissue disrupter. The membranes were incubated with the radioligand ([^3H]prazosin, NEN, 0.1 - 0.5 nM) and test compound at 37 °C for 30 min. The membranes were then filtered over polyethyleneimine-treated GF/B unifilter plates using a Packard Filtermate Harvester and washed with ice-cold 50 mM Tris-HCl, 1 mM EDTA buffer (3 x 3 sec. washes). Scintillation cocktail was added to the filter plates and bound radioligand determined by liquid scintillation spectrophotometry.
(§3) For each experiment, total binding (in the absence of any test or reference compounds) and non-specific binding (10 µM phentolamine) were determined. For each sample tested, the concentration producing 50% inhibition of binding (IC50) and Hill Slope (nH) was determined using iterative non-linear curve fitting techniques with Kaleidagraph (Synergy Software) or other appropriate software. If the radioligand KD was known, the inhibition dissociation constant (K1) of each ligand was determined according to the method of Cheng and Prusoff (Cheng, Y-C. and Prusoff, W.H., Biochem. Pharmacol., 1973, 22, 3099-3108).

alpha-1A adrenoceptor = target: T2, alpha-1A adrenoceptor (Homo sapiens, UniProt P35348); assay: [3H]prazosin binding (alpha1-adrenoceptor) assay, alpha-1A; details: membranes of transfected CHO-KI cells, read-out: affinity towards the alpha-1A adrenoceptor (pKi) (converted)
T2 construct: expressed in transfected cells; host or cells: CHO-K1
T2 sequence (P35348 1-466): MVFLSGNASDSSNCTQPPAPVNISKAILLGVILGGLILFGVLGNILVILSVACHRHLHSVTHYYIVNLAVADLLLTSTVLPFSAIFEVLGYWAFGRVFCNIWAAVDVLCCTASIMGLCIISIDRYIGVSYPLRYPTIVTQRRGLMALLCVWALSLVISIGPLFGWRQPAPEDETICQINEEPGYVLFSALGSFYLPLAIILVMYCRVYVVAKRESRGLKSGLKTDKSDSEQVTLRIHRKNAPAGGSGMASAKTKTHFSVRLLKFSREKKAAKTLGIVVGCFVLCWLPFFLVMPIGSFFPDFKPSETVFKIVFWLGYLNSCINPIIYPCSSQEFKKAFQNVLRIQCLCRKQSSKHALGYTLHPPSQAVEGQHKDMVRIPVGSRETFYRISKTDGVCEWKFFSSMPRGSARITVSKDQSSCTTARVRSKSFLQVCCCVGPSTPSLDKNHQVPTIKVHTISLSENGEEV
Protocol: as §1, §2, §3

alpha-1B adrenoceptor = target: T3, alpha-1B adrenoceptor (Homo sapiens, UniProt P35368); assay: [3H]prazosin binding (alpha1-adrenoceptor) assay, alpha-1B; details: membranes of transfected CHO-KI cells, read-out: affinity towards the alpha-1B adrenoceptor (pKi) (converted)
T3 construct: expressed in transfected cells; host or cells: CHO-K1
T3 sequence (P35368 1-520): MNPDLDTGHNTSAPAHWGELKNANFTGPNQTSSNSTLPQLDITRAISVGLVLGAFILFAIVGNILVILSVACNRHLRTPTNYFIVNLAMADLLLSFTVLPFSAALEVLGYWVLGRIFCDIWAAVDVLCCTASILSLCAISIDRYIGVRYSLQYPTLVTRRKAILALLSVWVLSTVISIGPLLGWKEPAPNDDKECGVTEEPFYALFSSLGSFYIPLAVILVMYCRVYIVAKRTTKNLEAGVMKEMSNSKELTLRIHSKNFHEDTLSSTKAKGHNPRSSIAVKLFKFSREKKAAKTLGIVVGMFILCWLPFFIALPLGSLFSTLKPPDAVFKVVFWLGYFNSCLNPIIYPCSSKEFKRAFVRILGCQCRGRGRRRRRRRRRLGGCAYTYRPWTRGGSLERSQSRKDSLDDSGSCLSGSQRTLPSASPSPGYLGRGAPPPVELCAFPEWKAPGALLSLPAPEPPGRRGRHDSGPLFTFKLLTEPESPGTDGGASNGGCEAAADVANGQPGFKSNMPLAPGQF
Protocol: as §1, §2, §3

| SMILES | Ki (alpha-1D adrenoceptor) [nM] | Ki (alpha-1A adrenoceptor) [nM] | Ki (alpha-1B adrenoceptor) [nM] | inhibition of HGN stimulation-induced increases in IUP and of phenylephrine-induced increases in DAP [1] |
| --- | --- | --- | --- | --- |
| COc1cc2nc(N3CCN(C(=O)c4ccco4)CC3)nc(N)c2cc1OC [prazosin] | – | – | – | inhibited increases in IUP and DAP in similar fashion |
| COc1cc2nc(N3CCc4c(cc(OC)c(OC)c4C#N)C3)[nH]c(=O)c2cc1OC [Compound 118, 2-(6,7-dimethoxy-4-oxo-3,4-dihydro-quinazolin-2-yl)-6,7-dimethoxy-1,2,3,4-tetrahydro-isoquinoline-5-carbonitrile] | 17 | 0.759 | 1.51 | – |
| COc1cc2[nH]c(N3CCc4ccncc4C3)nc(=O)c2cc1OC [Compound 147, 2-(3,4-dihydro-1H-[2,7]naphthyridin-2-yl)-6,7-dimethoxy-1H-quinazolin-4-one] | 468 | 5.5 | 41.7 | – |
| COc1cc2nc(N3CCc4c([nH]c5ccccc45)C3)[nH]c(=O)c2cc1OC [Compound 143, 6,7-dimethoxy-2-(1,3,4,9-tetrahydro-β-carbolin-2-yl)-3H-quinazolin-4-one] | 20.9 | 0.479 | 1.1 | – |
| COc1cc2[nH]c(N3CCc4cc(O)c(O)cc4C3C)nc(=O)c2cc1OC (stereo not shown) [Compound 142, 2-(6,7-dihydroxy-1-methyl-3,4-dihydro-1H-isoquinolin-2-yl)-6,7-dimethoxy-1H-quinazolin-4-one] | 38900 | 219 | 955 | – |

The next lines start with results.

| Ki (alpha-1D adrenoceptor) [nM] | Ki (alpha-1A adrenoceptor) [nM] | Ki (alpha-1B adrenoceptor) [nM] | SMILES | inhibition of HGN stimulation-induced increases in IUP and of phenylephrine-induced increases in DAP [1] |
| --- | --- | --- | --- | --- |
| 347 | 3.39 | 20 | COc1cc2nc(N3CCc4c(ncn4Cc4ccccc4)C3)[nH]c(=O)c2cc1OC [Compound 501, 2-(1-benzyl-1,4,6,7-tetrahydro-imidazo[4,5-c]pyridin-5-yl)-6,7-dimethoxy-3H-quinazolin-4-one] | – |
| 955 | 89.1 | 39.8 | COc1cc2[nH]c(N3CCc4c(cccc4N4CCOCC4)C3)nc(=O)c2cc1OC [Compound 131, 6,7-dimethoxy-2-(5-morpholin-4-yl-3,4-dihydro-1H-isoquinolin-2-yl)-1H-quinazolin-4-one] | – |
| 692 | 25.1 | 56.2 | COc1cc2nc(N3CCc4c(cccc4-c4cnccc4N)C3)[nH]c(=O)c2cc1OC [Compound 902, 2-[5-(4-amino-pyridin-3-yl)-3,4-dihydro-1H-isoquinolin-2-yl)-6,7-dimethoxy-3H-quinazolin-4-one] | – |
| 33.9 | 2.04 | 0.912 | COc1cc2nc(N3CCc4ccc(N5CCCC5)cc4C3)[nH]c(=O)c2cc1OC [Compound 113, 6,7-dimethoxy-2-(7-pyrrolidin-1-yl-3,4-dihydro-1H-isoquinolin-2-yl)-3H-quinazolin-4-one] | – |
| 575 | 4.47 | 8.71 | COc1cc2nc(N3CCc4c(ncnc4N4CCN(C)CC4)C3)[nH]c(=O)c2cc1OC [Compound 203, 6,7-dimethoxy-2-[4-(4-methyl-piperazin-1-yl)-5,8-dihydro-6H-pyrido[3,4-d]pyrimidin-7-yl]-3H-quinazolin-4-one] | – |
| 66.1 | 1.62 | 7.08 | COc1cc2c(cc1OC)CN(C1=Nc3cc(OC)c(OC)cc3S(=O)(=O)N1)CC2 [Compound 101, 3-(6,7-dimethoxy-3,4-dihydro-1H-isoquinolin-2-yl)-6,7-dimethoxy-2H-benzo[1,2,4]thiadiazine-1,1-dioxide] | – |
